# From US6518262B1, “22R-hydroxycholesta-8, 14-diene derivatives for the inhibition of meiosis” (Akzo Nobel N.V., priority 1999, dated 2003)
# Columns and labels:
# [1] = system: naturally occurring meiosis activating substance; details: as disclosed in WO98/28323; cited from earlier work
# [2] = system: denuded oocytes (DO); assay: Oocyte assay, antagonistic testing, inhibition of FF-Mas induced maturation in denuded oocytes (DO assay); type: cell-based, mice (B6D2-F1, strain C57BL×DBA); details: FF-Mas 5 μM, compound tested 5 μM, control (FF-Mas alone) in brackets
# Procedure: (§1) The meiosis inhibiting activity of the 22R-hydroxycholesta-8,14-diene derivatives of the invention is measured in an in vitro oocyte assay as the ability to inhibit the FF-Mas or 22S-hydroxy-FF-Mas induced maturation, in hypoxanthine media, in denuded oocytes (DO) or cumulus enclosed oocytes (CEO), respectively. Natural resumption of meiosis can be mimicked in vitro by addition of FF-Mas or other agonists to the culture medium containing hypoxanthine. The antagonistic activity of the compounds is measured as the ability to inhibit the FF-Mas or 22S-hydroxy-FF-Mas induced oocyte maturation in denuded oocytes or cumulus enclosed oocytes, respectively, in vitro. Ovaries are obtained from immature female mice (B6D2-F1, strain C57BL×DBA). At the age of 19, 20 or 21 days the mice are injected subcutaneously with a single dose of 20 IU follicle stimulating hormone (Humegon, Organon, The Netherlands) in saline. Forty-eight hours after follicle stimulating hormone injection mice are killed by cervical dislocation. The ovaries are removed, freed of extraneous tissue and placed in a multidish containing 0.5 ml preparation medium at 37° C. L-15 Leibovitz medium (Gibco, pH 7.3±0.1) supplemented with bovine serum albumin (3 mg·ml^−1), L-glutamine (0.23 mM), sodium pyruvate (2 mM) and hypoxanthine (4 mM) is used as preparation medium. The antral follicles of the ovaries are punctured under a dissecting microscope using two 27-gauge needles attached to two 1 ml syringes. […] At t=0 the number of oocytes with intact germinal vesicles (GV) or germinal vesicle break-down (GVBD) is counted under an inverted microscope with differential interference contrast equipment. […] At the end of the culture period the number of oocytes with GV or GVBD per group is counted. For statistical analysis the percentage germinal vesicle breakdown is calculated for each group in one block. These percentages are subjected to arcsin transformation, and differences between control and test compounds are analyzed by an ANOVA test for a randomized block design. […]
# [3] = system: cumulus enclosed oocytes (CEO); assay: Oocyte assay, antagonistic testing, inhibition of 22S-hydroxy-FF-Mas induced maturation in cumulus enclosed oocytes (CEO assay); type: cell-based, mice (B6D2-F1, strain C57BL×DBA); details: 22S-hydroxy-FF-Mas 5 μM, control (22S-hydroxy-FF-Mas alone) in brackets
# Procedure: as §1
# [4] = target: T1, LXRα receptor (Homo sapiens, UniProt Q13133); details: among a series of hydroxycholestane derivatives; cited from earlier work
# T1 sequence (Q13133 1-447): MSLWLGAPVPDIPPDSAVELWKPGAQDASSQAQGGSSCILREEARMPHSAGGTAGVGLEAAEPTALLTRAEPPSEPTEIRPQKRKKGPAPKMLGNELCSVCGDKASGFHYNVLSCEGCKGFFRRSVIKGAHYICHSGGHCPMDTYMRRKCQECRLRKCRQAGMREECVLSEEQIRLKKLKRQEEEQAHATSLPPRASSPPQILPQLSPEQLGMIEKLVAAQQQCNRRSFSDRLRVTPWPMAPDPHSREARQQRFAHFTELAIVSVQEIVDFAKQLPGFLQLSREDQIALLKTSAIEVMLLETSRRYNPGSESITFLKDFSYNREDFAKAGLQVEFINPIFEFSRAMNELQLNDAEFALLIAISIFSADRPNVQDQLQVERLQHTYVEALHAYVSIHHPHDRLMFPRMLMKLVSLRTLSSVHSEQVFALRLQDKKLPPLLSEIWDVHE
smiles,measurement,setting,value
CC(C)CC[C@@H](O)[C@@H](C)[C@H]1CC[C@H]2[C@@H]3CC=C4C[C@@H](O)CC[C@]4(C)[C@H]3CC[C@]12C [22R-hydroxycholesterol],antagonist activity (meiosis regulating),[1],only weakly active as an antagonist
same,% GVBD DO assay exp.,[2],38(89) %
same,% GVBD CEO assay exp.,[3],52(89)^4%
same,activation of the LXRα receptor,[4],most potent activator of the LXRα receptor
